Measurements reported in US9771369B2, “Compounds and methods for kinase modulation, and indications therefor” (Plexxikon Inc., priority 2014, dated 2017).

What was measured:
c-Kit kinase = c-Kit kinase (Homo sapiens (Human), UniProt P10721); test: c-Kit biochemical assay (AlphaScreen kinase activity)
Summary of the method: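 AlphaScreen: c-Kit phosphorylates biotin-(E4Y)3 (100 nM) at 10 μM ATP, pH 7.2 HEPES buffer with Mg/Mn, 5% DMSO, 1 h room temperature; streptavidin donor and PY30 acceptor beads detect product. Second format: 100 μM ATP, 30 nM biotin-(E4Y)10, pH 7.5. IC50 from 8-point 1:3 dilution curves.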

[1] = tested on: BaF3-FL KIT D816V or BaF3-FL KIT V560G/D816V cell line; test: Cell-based assays of c-Kit mutant kinase activity (cell proliferation, ATPlite); conditions: at least one of the c-kit cell assays of Example 7
Summary of the method: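 BaF3 cells dependent on transfected full-length human KIT D816V or V560G/D816V (pCI-Neo, CMV promoter) were seeded at 1×10^4 cells/well and exposed to 8-point 1:3 dilutions from 10 μM top (0.2% DMSO) for three days at 37° C. ATPlite luminescence gave cell number; IC50 from concentration-response.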

Sequence of c-Kit kinase (P10721 26-976): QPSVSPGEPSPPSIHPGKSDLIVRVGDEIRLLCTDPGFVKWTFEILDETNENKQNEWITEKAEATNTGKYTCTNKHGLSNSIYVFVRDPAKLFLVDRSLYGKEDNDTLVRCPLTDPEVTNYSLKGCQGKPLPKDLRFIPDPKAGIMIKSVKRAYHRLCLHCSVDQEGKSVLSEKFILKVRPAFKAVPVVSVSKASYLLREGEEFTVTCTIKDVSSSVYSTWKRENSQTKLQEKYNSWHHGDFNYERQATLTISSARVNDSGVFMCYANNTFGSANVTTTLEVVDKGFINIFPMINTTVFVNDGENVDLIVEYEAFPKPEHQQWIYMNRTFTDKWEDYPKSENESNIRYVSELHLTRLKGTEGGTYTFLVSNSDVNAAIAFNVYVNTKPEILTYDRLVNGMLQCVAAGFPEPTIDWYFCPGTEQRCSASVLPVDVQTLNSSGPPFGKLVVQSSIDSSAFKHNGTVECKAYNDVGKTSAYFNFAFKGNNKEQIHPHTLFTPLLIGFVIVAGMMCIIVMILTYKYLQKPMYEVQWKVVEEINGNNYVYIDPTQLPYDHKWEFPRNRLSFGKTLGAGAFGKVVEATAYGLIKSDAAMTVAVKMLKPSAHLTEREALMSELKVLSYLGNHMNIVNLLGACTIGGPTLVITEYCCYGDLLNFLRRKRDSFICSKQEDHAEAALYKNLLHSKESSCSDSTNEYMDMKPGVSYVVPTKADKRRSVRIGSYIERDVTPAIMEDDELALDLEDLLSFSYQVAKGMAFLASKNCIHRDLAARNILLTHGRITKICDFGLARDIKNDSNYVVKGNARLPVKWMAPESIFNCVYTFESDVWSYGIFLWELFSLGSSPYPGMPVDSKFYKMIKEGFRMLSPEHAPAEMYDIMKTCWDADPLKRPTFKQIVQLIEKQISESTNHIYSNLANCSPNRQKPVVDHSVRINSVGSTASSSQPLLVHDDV

SMILES	IC50 (c-Kit kinase) [µM]	IC50 [1] [nM]
Cc1cc2c(N3CCC(C)(c4nc(C)c(-c5ccc6c(c5)OCO6)[nH]4)CC3)ncnc2[nH]1 [P-3150, 4-[4-[5-(1,3-benzodioxol-5-yl)-4-methyl-1H-imidazol-2-yl]-4-methyl-1-piperidyl]-6-methyl-7H-pyrrolo[2,3-d]pyrimidine]	1 to 10	< 10000
Cc1cc2c(N3CCC(C)(c4nc(C)c(-c5ccc6c(c5)OCCO6)[nH]4)CC3)ncnc2[nH]1 [P-3151, 4-[4-[5-(2,3-dihydro-1,4-benzodioxin-6-yl)-4-methyl-1H-imidazol-2-yl]-4-methyl-1-piperidyl]-6-methyl-7H-pyrrolo[2,3-d]pyrimidine]	1 to 10	< 10000
Cc1cc2c(N3CCC(C)(c4nc(C)c(-c5ccc6c(c5)OC(F)(F)O6)[nH]4)CC3)ncnc2[nH]1 [P-3152, 4-[4-[5-(2,2-difluoro-1,3-benzodioxol-5-yl)-4-methyl-1H-imidazol-2-yl]-4-methyl-1-piperidyl]-6-methyl-7H-pyrrolo[2,3-d]pyrimidine]	1 to 10	< 10000
COc1ccc(-c2[nH]c(C3(C)CCN(c4ncnc5[nH]c(-c6cnn(C(F)F)c6)cc45)CC3)nc2C)cc1 [P-3153, 6-[1-(difluoromethyl)pyrazol-4-yl]-4-[4-[5-(4-methoxyphenyl)-4-methyl-1H-imidazol-2-yl]-4-methyl-1-piperidyl]-7H-pyrrolo[2,3-d]pyrimidine]	0.0001 to 1	< 10000
COc1ccc(-c2[nH]c(C3(C)CCN(c4ncnc5[nH]c(-c6cnn(C(F)F)c6)cc45)CC3)nc2C)cc1C [P-3154, 6-[1-(difluoromethyl)pyrazol-4-yl]-4-[4-[5-(4-methoxy-3-methyl-phenyl)-4-methyl-1H-imidazol-2-yl]-4-methyl-1-piperidyl]-7H-pyrrolo[2,3-d]pyrimidine]	0.0001 to 1	< 10000
Cc1nc(C2(C)CCN(c3ncnc4[nH]c(-c5cnn(C(F)F)c5)cc34)CC2)[nH]c1-c1ccc2c(c1)OCO2 [P-3155, 4-[4-[5-(1,3-benzodioxol-5-yl)-4-methyl-1H-imidazol-2-yl]-4-methyl-1-piperidyl]-6-[1-(difluoromethyl)pyrazol-4-yl]-7H-pyrrolo[2,3-d]pyrimidine]	0.0001 to 1	< 10000
COc1ccc(-c2[nH]c(C3(C)CCN(c4ncnc5[nH]c(-c6ccc(OC)nc6)cc45)CC3)nc2C)cc1 [P-3156, 4-[4-[5-(4-methoxyphenyl)-4-methyl-1H-imidazol-2-yl]-4-methyl-1-piperidyl]-6-(6-methoxy-3-pyridyl)-7H-pyrrolo[2,3-d]pyrimidine]	0.0001 to 1	< 10000
COc1ccc(-c2cc3c(N4CCC(C)(c5nc(C)c(-c6ccc(OC)c(C)c6)[nH]5)CC4)ncnc3[nH]2)cn1 [P-3157, 4-[4-[5-(4-methoxy-3-methyl-phenyl)-4-methyl-1H-imidazol-2-yl]-4-methyl-1-piperidyl]-6-(6-methoxy-3-pyridyl)-7H-pyrrolo[2,3-d]pyrimidine]	0.0001 to 1	< 10000
COc1ccc(-c2cc3c(N4CCC(C)(c5nc(C)c(-c6ccc7c(c6)OCO7)[nH]5)CC4)ncnc3[nH]2)cn1 [P-3158, 4-[4-[5-(1,3-benzodioxol-5-yl)-4-methyl-1H-imidazol-2-yl]-4-methyl-1-piperidyl]-6-(6-methoxy-3-pyridyl)-7H-pyrrolo[2,3-d]pyrimidine]	0.0001 to 1	< 10000
Cc1nc(C2(C)CCN(c3ncnc4[nH]c(-c5ccc(C#N)cc5)cc34)CC2)[nH]c1-c1ccc2c(c1)OCO2 [P-3159, 4-[4-[4-[5-(1,3-benzodioxol-5-yl)-4-methyl-1H-imidazol-2-yl]-4-methyl-1-piperidyl]-7H-pyrrolo[2,3-d]pyrimidin-6-yl]benzonitrile]	0.0001 to 1	< 10000
CCOc1ccc(-c2[nH]c(C3(C)CCN(c4ncnc5[nH]c(-c6ccc(C#N)cc6)cc45)CC3)nc2C)cc1C [P-3160, 4-[4-[4-[5-(4-ethoxy-3-methyl-phenyl)-4-methyl-1H-imidazol-2-yl]-4-methyl-1-piperidyl]-7H-pyrrolo[2,3-d]pyrimidin-6-yl]benzonitrile]	0.0001 to 1	< 10000
CCOc1ccc(-c2[nH]c(C3(C)CCN(c4ncnc5[nH]c(-c6ccc(C#N)cc6)cc45)CC3)nc2C)cc1 [P-3161, 4-[4-[4-[5-(4-ethoxyphenyl)-4-methyl-1H-imidazol-2-yl]-4-methyl-1-piperidyl]-7H-pyrrolo[2,3-d]pyrimidin-6-yl]benzonitrile]	0.0001 to 1	< 10000
Cc1nc(C2CCN(c3ncnc4[nH]c(-c5ccc(C#N)cc5)cc34)CC2)[nH]c1-c1ccc(C(F)F)cc1 [P-3162, 4-[4-[4-[5-[4-(difluoromethyl)phenyl]-4-methyl-1H-imidazol-2-yl]-1-piperidyl]-7H-pyrrolo[2,3-d]pyrimidin-6-yl]benzonitrile]	1 to 10	< 10000
COc1ccc(-c2[nH]c(C3(C)CCN(c4ncnc5[nH]c(-c6ccc(C#N)cc6)cc45)CC3)nc2C)cc1F [P-3163, 4-[4-[4-[5-(3-fluoro-4-methoxy-phenyl)-4-methyl-1H-imidazol-2-yl]-4-methyl-1-piperidyl]-7H-pyrrolo[2,3-d]pyrimidin-6-yl]benzonitrile]	0.0001 to 1	< 10000
Cc1nc(C2(C)CCN(c3ncnc4[nH]c(-c5ccc(C#N)cc5)cc34)CC2)[nH]c1-c1ccc(C(F)F)cc1 [P-3164, 4-[4-[4-[5-[4-(difluoromethyl)phenyl]-4-methyl-1H-imidazol-2-yl]-4-methyl-1-piperidyl]-7H-pyrrolo[2,3-d]pyrimidin-6-yl]benzonitrile]	0.0001 to 1	< 10000
Cc1cc2c(N3CCC(C)(c4nc(C)c(-c5ccc(C(F)(F)F)cc5)[nH]4)CC3)ncnc2[nH]1 [P-3165, 6-methyl-4-[4-methyl-4-[4-methyl-5-[4-(trifluoromethyl)phenyl]-1H-imidazol-2-yl]-1-piperidyl]-7H-pyrrolo[2,3-d]pyrimidine]	1 to 10	< 10000
COc1cccc(-c2[nH]c(C3(C)CCN(c4ncnc5[nH]c(C)cc45)CC3)nc2C)c1 [P-3166, 4-[4-[5-(3-methoxyphenyl)-4-methyl-1H-imidazol-2-yl]-4-methyl-1-piperidyl]-6-methyl-7H-pyrrolo[2,3-d]pyrimidine]	1 to 10	< 10000
COc1cccc(-c2[nH]c(C3(C)CCN(c4ncnc5[nH]c(-c6ccc(C#N)cc6)cc45)CC3)nc2C)c1 [P-3167, 4-[4-[4-[5-(3-methoxyphenyl)-4-methyl-1H-imidazol-2-yl]-4-methyl-1-piperidyl]-7H-pyrrolo[2,3-d]pyrimidin-6-yl]benzonitrile]	0.0001 to 1	< 10000
COc1cccc(-c2[nH]c(C3(C)CCN(c4ncnc5[nH]c(-c6cnn(C(F)F)c6)cc45)CC3)nc2C)c1 [P-3168, 6-[1-(difluoromethyl)pyrazol-4-yl]-4-[4-[5-(3-methoxyphenyl)-4-methyl-1H-imidazol-2-yl]-4-methyl-1-piperidyl]-7H-pyrrolo[2,3-d]pyrimidine]	0.0001 to 1	< 10000
COc1cccc(-c2[nH]c(C3(C)CCN(c4ncnc5[nH]c(-c6ccc(OC)nc6)cc45)CC3)nc2C)c1 [P-3169, 4-[4-[5-(3-methoxyphenyl)-4-methyl-1H-imidazol-2-yl]-4-methyl-1-piperidyl]-6-(6-methoxy-3-pyridyl)-7H-pyrrolo[2,3-d]pyrimidine]	0.0001 to 1	< 10000
CCOc1ccc(-c2[nH]c(C3(C)CCN(c4ncnc5[nH]c(-c6cnn(C(F)F)c6)cc45)CC3)nc2C)cc1 [P-3170, 6-[1-(difluoromethyl)pyrazol-4-yl]-4-[4-[5-(4-ethoxyphenyl)-4-methyl-1H-imidazol-2-yl]-4-methyl-1-piperidyl]-7H-pyrrolo[2,3-d]pyrimidine]	0.0001 to 1	< 10000
Fc1ccc(-c2cc3c(N4CCC(c5nnc(-c6cccc(OC(F)F)c6)[nH]5)CC4)ncnc3[nH]2)cc1 [P-3204, 4-[4-[5-[3-(difluoromethoxy)phenyl]-4H-1,2,4-triazol-3-yl]-1-piperidyl]-6-(4-fluorophenyl)-7H-pyrrolo[2,3-d]pyrimidine]	10 to 300	< 10000
COc1cc(-c2cc3c(N4CCC(c5nnc(-c6ccc(F)cc6)[nH]5)CC4)ncnc3[nH]2)ccn1 [P-3205, 4-[4-[5-(4-fluorophenyl)-4H-1,2,4-triazol-3-yl]-1-piperidyl]-6-(2-methoxy-4-pyridyl)-7H-pyrrolo[2,3-d]pyrimidine]	10 to 300	< 10000
